US10323038B2, “Pyrazole compounds and methods of making and using same” (ABIDE THERAPEUTICS, INC., priority 2015, dated 2019)

Assays:
[1] = molecular target: MAGL (Mus musculus (Mouse), UniProt O35678); assay: In vitro competitive activity-based protein profiling, MAGL (mouse); type: biochemical; settings: for inhibition at 1 µM: read-out: MAGL % inh. 1 μM (mouse)
In short: (§1)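 Residual MAGL and FAAH activity quantified from fluorescent gel bands after SDS-PAGE. Before that, FP-Rh or HT-01 probe (50 μM stock) labelled for 30 min at 37 °C, following 30 min inhibitor preincubation. Mouse assays used brain membrane fraction or cell lysates, human used prefrontal cortex or cell membranes, all at 1.0 mg/mL protein.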

[2] = molecular target: FAAH (Mus musculus (Mouse), UniProt O08914); assay: In vitro competitive activity-based protein profiling, FAAH (mouse); type: biochemical; settings: for inhibition at 1 µM: read-out: FAAH % inh. 1 μM (mouse)
FAAH, sequence (O08914 whole entry): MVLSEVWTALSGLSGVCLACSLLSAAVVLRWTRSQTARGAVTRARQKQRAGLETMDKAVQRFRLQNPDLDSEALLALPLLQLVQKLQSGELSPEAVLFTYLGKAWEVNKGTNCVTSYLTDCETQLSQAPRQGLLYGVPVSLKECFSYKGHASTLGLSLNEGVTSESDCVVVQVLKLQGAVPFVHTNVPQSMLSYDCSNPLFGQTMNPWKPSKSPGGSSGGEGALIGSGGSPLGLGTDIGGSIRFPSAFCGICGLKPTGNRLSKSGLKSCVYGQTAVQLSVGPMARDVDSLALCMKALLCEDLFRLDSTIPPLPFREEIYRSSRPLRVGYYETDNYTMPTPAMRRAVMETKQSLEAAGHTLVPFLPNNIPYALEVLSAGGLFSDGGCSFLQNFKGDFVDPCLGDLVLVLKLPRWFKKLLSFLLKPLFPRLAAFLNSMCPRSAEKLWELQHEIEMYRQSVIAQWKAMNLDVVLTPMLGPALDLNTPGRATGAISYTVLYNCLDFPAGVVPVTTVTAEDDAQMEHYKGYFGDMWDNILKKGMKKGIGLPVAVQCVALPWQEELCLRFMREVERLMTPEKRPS
In short: as §1

MAGL, sequence (O35678 whole entry): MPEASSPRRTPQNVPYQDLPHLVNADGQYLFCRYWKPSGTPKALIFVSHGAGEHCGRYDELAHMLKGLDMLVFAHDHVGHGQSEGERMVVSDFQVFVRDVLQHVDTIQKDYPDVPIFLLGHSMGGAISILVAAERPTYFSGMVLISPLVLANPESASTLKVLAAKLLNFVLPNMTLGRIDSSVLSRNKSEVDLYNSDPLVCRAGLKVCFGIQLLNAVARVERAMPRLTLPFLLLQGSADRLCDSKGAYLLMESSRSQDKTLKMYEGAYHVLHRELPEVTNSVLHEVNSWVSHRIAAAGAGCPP

IC50 [1] [µM] | inhibition at 1 µM [1] [%] | IC50 [2] [µM] | inhibition at 1 µM [2] [%] | Compound
 | ≥ 75 |  | ≥ 75 | CS(=O)(=O)Nc1cnn(C(=O)N2CCN(Cc3cc(N4CCCC4)cc(C(F)(F)F)c3)CC2)c1 [Example 295, N-(1-(4-(3-(pyrrolidin-1-yl)-5-(trifluoromethyl)benzyl)piperazine-1-carbonyl)-1H-pyrazol-4-yl)methanesulfonamide]
≤ 0.1 | ≥ 75 | ≤ 0.1 | ≥ 75 | CC(=O)N(C)c1cnn(C(=O)N2CC3CN(Cc4cc(Cl)cc(OCc5ccccc5)c4)CC3C2)c1 (stereo not shown) [Example 251, N-(1-(5-(3-(benzyloxy)-5-chlorobenzyl)octahydropyrrolo[3,4-c]pyrrole-2-carbonyl)-1H-pyrazol-4-yl)-N-methylacetamide]
 | ≥ 75 |  | ≥ 75 | CC(=O)N(C)c1cnn(C(=O)N2CCC3(CCN(Cc4ccc(-c5cncnc5)cc4Cl)C3)C2)c1 (stereo not shown) [Example 262, N-(1-(7-(2-chloro-4-(pyrimidin-5-yl)benzyl)-2,7-diazaspiro[4.4]nonane-2-carbonyl)-1H-pyrazol-4-yl)-N-methylacetamide]
 | ≥ 75 |  | ≥ 75 | CC(=O)N(C)c1cnn(C(=O)N2CC3CN(Cc4ccc(Oc5cncnc5)cc4C(F)(F)F)CC3C2)c1 (stereo not shown) [Example 265, N-methyl-N-(1-(5-(4-(pyrimidin-5-yloxy)-2-(trifluoromethyl)benzyl)octahydropyrrolo [3,4-c]pyrrole-2-carbonyl)-1H-pyrazol-4-yl)acetamide]
 | ≥ 75 |  | ≥ 75 | CC(=O)N(C)c1cnn(C(=O)N2CC3CN(Cc4ccc(OC(C)C)cc4C(F)(F)F)CC3C2)c1 (stereo not shown) [Example 255, N-(1-(5-(4-isopropoxy-2-(trifluoromethyl)benzyl)octahydropyrrolo [3,4-c]pyrrole-2-carbonyl)-1H-pyrazol-4-yl)-N-methylacetamide]
 | 25 to 50 |  | 0 to 25 | CC(=O)N(C)c1cnn(C(=O)N2CC3(CCN(Cc4ccc(CN5CCOCC5)cc4)CC3)C2)c1 [Example 230, N-methyl-N-(1-(7-(4-(morpholinomethyl)benzyl)-2,7-diazaspiro[3.5]nonane-2-carbonyl)-1H-pyrazol-4-yl)acetamide]
 | 50 to 75 |  | ≥ 75 | CS(=O)(=O)Nc1cnn(C(=O)N2CCC3(CCN(Cc4ccc(-c5nccs5)cc4Cl)C3)C2)c1 (stereo not shown) [Example 287, N-(1-(7-(2-chloro-4-(thiazol-2-yl)benzyl)-2,7-diazaspiro[4.4]nonane-2-carbonyl)-1H-pyrazol-4-yl)methanesulfonamide]
≤ 0.1 | ≥ 75 | 0.1 to 1 | ≥ 75 | CC(=O)N(C)c1cnn(C(=O)N2CCN(Cc3ccc(N4CCOCC4)cc3Cl)CC2)c1 [Example 203, N-(1-(4-(2-chloro-4-morpholinobenzyl)piperazine-1-carbonyl)-1H-pyrazol-4-yl)-N-methylacetamide]
 | 50 to 75 |  | 0 to 25 | CC(=O)N(C)c1cnn(C(=O)N2CC3CN(Cc4ccccc4N4CCOCC4)CC3C2)c1 (stereo not shown) [Example 185, N-methyl-N-(1-(5-(2-morpholinobenzyl)octahydropyrrolo[3,4-c]pyrrole-2-carbonyl)-1H-pyrazol-4-yl)acetamide]
 | 50 to 75 |  | ≥ 75 | CN(Cc1ccc(N2CCCC2)cc1C(F)(F)F)[C@H]1C[C@@H]2CN(C(=O)n3cc(NS(C)(=O)=O)cn3)C[C@@H]2C1 [Example 282, N-(1-(trans-5-(methyl(4-(pyrrolidin-1-yl)-2-(trifluoromethyl)benzyl)amino)octahydrocyclopenta[c]pyrrole-2-carbonyl)-1H-pyrazol-4-yl) methanesulfonamide]
≤ 0.1 | 50 to 75 | 1 to 10 | ≥ 75 | CS(=O)(=O)Nc1cnn(C(=O)N2CCN(Cc3ccc(-c4ncco4)cc3C(F)(F)F)CC2)c1 [Example 303, N-(1-(4-(4-(oxazol-2-yl)-2-(trifluoromethyl)benzy)piperazine-1-carbonyl)-1H-pyrazol-4-yl)methanesulfonamide]

Continued, compound first:

Compound | IC50 [1] [µM] | inhibition at 1 µM [1] [%] | IC50 [2] [µM] | inhibition at 1 µM [2] [%]
CC(=O)N(C)c1cnn(C(=O)N2CCC3(CCN(Cc4ccc(C)cc4Cl)C3)C2)c1 (stereo not shown) [Example 55, N-(1-(7-(2-chloro-4-methylbenzyl)-2,7-diazaspiro[4.4]nonane-2-carbonyl)-1H-pyrazol-4-yl)-N-methylacetamide] | 0.1 to 1 | ≥ 75 | ≤ 0.1 | ≥ 75
CC(=O)N(C)c1cnn(C(=O)N2C[C@H]3C[C@H](NCc4ccccc4Cl)C[C@H]3C2)c1 [Example 136, N-(1-(trans-5-(2-chlorobenzylamino)octahydrocyclopenta[c]pyrrole-2-carbonyl)-1H-pyrazol-4-yl)-N-methylacetamide] | 0.1 to 1 | ≥ 75 | 0.1 to 1 | ≥ 75
CC(=O)N(C)c1cnn(C(=O)N2CCC3(CCN(Cc4cc(Cl)ccc4Cl)C3)C2)c1 (single isomer, unassigned) [Example 176, N-(1-(7-(2,5-dichlorobenzyl)-2,7-diazaspiro[4.4]nonane-2-carbonyl)-1H-pyrazol-4-yl)-N-methylacetamide] | ≤ 0.1 | ≥ 75 | ≤ 0.1 | ≥ 75
CS(=O)(=O)Nc1cnn(C(=O)N2CC3CN(Cc4ccc(Cl)cc4)CC3C2)c1 (stereo not shown) [Example 8, N-(1-(5-(4-chlorobenzyl)octahydropyrrolo[3,4-c]pyrrole-2-carbonyl)-1H-pyrazol-4-yl)methanesulfonamide] | 1 to 10 | 0 to 25 | 0.1 to 1 | ≥ 75
CC(=O)N(C)c1cnn(C(=O)N2CC3CN(Cc4cc(C)cc(C)c4)CC3C2)c1 (stereo not shown) [Example 108, N-(1-(5-(3,5-dimethylbenzyl)octahydropyrrolo[3,4-c]pyrrole-2-carbonyl)-1H-pyrazol-4-yl)-N-methylacetamide] | 0.1 to 1 | ≥ 75 | ≤ 0.1 | ≥ 75
CC(=O)N(C)c1cnn(C(=O)N2CCC3(CC2)CN(Cc2cccc(N4CCOCC4)c2)C3)c1 [Example 39, N-methyl-N-(1-(2-(3-morpholinobenzyl)-2,7-diazaspiro[3.5]nonane-7-carbonyl)-1H-pyrazol-4-yl)acetamide] |  | ≥ 75 |  | 25 to 50
CC(=O)N(C)c1cnn(C(=O)N2C[C@H]3C[C@@H](N(C)Cc4ccc(Cl)cc4)C[C@H]3C2)c1 [Example 143, N-(1-(cis-5-((4-chlorobenzyl)(methyl)amino)octahydrocyclopenta[c]pyrrole-2-carbonyl)-1H-pyrazol-4-yl)-N-methylacetamide] | 0.1 to 1 | ≥ 75 | 0.1 to 1 | ≥ 75
COc1ccccc1CN1CC2(CCN(C(=O)n3cc(N(C)C(C)=O)cn3)CC2)C1 [Example 43, N-(1-(2-(2-methoxybenzyl)-2,7-diazaspiro[3.5]nonane-7-carbonyl)-1H-pyrazol-4-yl)-N-methylacetamide] |  | ≥ 75 |  | 0 to 25
CS(=O)(=O)Nc1cnn(C(=O)N2CC3CN(Cc4ccccc4Cl)CC3C2)c1 (stereo not shown) [Example 6, N-(1-(5-(2-chlorobenzyl)octahydropyrrolo[3,4-c]pyrrole-2-carbonyl)-1H-pyrazol-4-yl)methanesulfonamide] | 1 to 10 | 0 to 25 | 0.1 to 1 | ≥ 75
CC(=O)N(C)c1cnn(C(=O)N2CC3CN(Cc4ccc(Cl)c(Cl)c4)CC3C2)c1 (stereo not shown) [Example 12, N-(1-(5-(3,4-dichlorobenzyl)octahydropyrrolo[3,4-c]pyrrole-2-carbonyl)-1H-pyrazol-4-yl)-N-methylacetamide] | 0.1 to 1 | ≥ 75 | ≤ 0.1 | ≥ 75
CC(=O)N(C)c1cnn(C(=O)N2CCC3(CC2)CN(Cc2ccccc2F)C3)c1 [Example 41, N-(1-(2-(2-fluorobenzyl)-2,7-diazaspiro[3.5]nonane-7-carbonyl)-1H-pyrazol-4-yl)-N-methylacetamide] |  | ≥ 75 |  | 50 to 75
CC(=O)N(C)c1cnn(C(=O)N2CC3CN(Cc4cc(C(F)(F)F)ccc4C(F)(F)F)CC3C2)c1 (stereo not shown) [Example 126, N-(1-(5-(2,5-bis(trifluoromethyl)benzyl)octahydropyrrolo[3,4-c]pyrrole-2-carbonyl)-1H-pyrazol-4-yl)-N-methylacetamide] |  | ≥ 75 |  | ≥ 75
CC(=O)N(C)c1cnn(C(=O)N2CC3(CCN(Cc4ccc(N5CCOCC5)cc4C)CC3)C2)c1 [Example 23, N-methyl-N-(1-(7-(2-methyl-4-morpholinobenzyl)-2,7-diazaspiro[3.5]nonane-2-carbonyl)-1H-pyrazol-4-yl)acetamide] |  | 25 to 50 |  | 25 to 50
CC(=O)N(C)c1cnn(C(=O)N2C[C@H]3C[C@@H](N(C)Cc4cc(C(F)(F)F)ccc4C(F)(F)F)C[C@H]3C2)c1 [Example 140, N-(1-(cis-5-((2,5-bis(trifluoromethyl)benzyl)(methyl)amino)octahydrocyclopenta[c]pyrrole-2-carbonyl)-1H-pyrazol-4-yl)-N-methylacetamide] |  | ≥ 75 |  | ≥ 75
CC(=O)N(C)c1cnn(C(=O)N2CCC3(CCN(Cc4c(Cl)cccc4Cl)C3)C2)c1 (stereo not shown) [Example 49, N-(1-(7-(2,6-dichlorobenzyl)-2,7-diazaspiro[4.4]nonane-2-carbonyl)-1H-pyrazol-4-yl)-N-methylacetamide] | 0.1 to 1 | ≥ 75 | 0.1 to 1 | ≥ 75
